Results: article PMC11022729 (Advanced Science, 2024)

Legend:
histamine H1 receptor = histamine H1 receptor (Homo sapiens, UniProt P35367); test: [3H]-pyrilamine competition binding assay; parameters: expressed in transfected cells; host or cells: CHO
Description: For membrane preparations of CHO cells stably expressing the human histamine H1 receptor (H1R), cells were washed and harvested with PBS buffer, homogenized by sonication (3 × 15 s) in ice‐cold HEPES‐H1R binding buffer (20 mM HEPES, 10 mM MgCl2, and 100 mM NaCl), followed by a centrifugation step (20 000 × g, 30 min, 4 °C). The resulting cell pellet was resuspended in binding buffer and homogenized using a hand potter. Membrane extracts were stored at −80 °C. Prior to use, the membranes were handled as described for D2R/D3R. […] Assays were performed at least in duplicates with appropriate concentrations between 0.1 nM and 100 µM of the test compound. […] The subsequent procedure was performed as described for D2R/D3R.

human Slack = molecular target: T1, human Slack (Homo sapiens, UniProt Q5JUK3); test: Whole-cell patch-clamp recordings in HEK-Slack cells; format: cell-based; settings: 25 µM
T1 construct: host or cells: HEK293
T1 sequence (Q5JUK3 1-1230): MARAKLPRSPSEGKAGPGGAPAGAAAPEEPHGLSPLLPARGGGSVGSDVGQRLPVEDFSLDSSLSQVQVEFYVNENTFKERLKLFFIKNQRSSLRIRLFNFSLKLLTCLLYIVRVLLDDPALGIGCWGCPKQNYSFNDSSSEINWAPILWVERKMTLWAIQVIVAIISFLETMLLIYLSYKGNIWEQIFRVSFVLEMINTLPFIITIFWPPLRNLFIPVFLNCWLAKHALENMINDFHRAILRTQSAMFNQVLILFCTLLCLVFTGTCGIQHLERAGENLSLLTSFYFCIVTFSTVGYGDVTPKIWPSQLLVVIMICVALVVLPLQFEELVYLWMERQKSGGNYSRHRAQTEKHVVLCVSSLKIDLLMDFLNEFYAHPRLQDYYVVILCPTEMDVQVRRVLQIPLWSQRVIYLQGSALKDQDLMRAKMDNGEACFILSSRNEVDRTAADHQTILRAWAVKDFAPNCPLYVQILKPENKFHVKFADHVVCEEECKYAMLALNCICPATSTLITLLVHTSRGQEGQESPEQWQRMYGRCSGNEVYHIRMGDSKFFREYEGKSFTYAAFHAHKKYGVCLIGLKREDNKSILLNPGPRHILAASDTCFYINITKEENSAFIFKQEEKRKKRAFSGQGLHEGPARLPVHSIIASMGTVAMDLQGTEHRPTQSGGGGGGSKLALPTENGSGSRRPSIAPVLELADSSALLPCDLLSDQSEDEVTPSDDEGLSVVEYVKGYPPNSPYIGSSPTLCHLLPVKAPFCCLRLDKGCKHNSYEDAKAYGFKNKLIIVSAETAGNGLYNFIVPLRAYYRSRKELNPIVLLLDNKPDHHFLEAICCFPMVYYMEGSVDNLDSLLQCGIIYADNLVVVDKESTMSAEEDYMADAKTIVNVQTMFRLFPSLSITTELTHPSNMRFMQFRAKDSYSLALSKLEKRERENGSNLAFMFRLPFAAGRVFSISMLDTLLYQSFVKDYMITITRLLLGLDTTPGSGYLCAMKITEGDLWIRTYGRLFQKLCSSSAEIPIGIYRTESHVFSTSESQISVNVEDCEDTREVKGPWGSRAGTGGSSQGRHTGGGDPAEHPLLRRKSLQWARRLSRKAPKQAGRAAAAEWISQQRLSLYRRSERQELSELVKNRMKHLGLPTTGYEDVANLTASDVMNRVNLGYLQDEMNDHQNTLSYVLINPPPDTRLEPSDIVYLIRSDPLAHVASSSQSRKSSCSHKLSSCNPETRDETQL
Description: Next, we verified Slack activation by the new compounds using whole‐cell patch‐clamp recordings in HEK‐Slack cells. […] At a holding potential of −70 mV, a series of 500 ms‐long test pulses ranging from −120 to +120 mV in intervals of 20 mV were applied.^[ [16] ^]
HEK‐Slack cells were plated onto poly‐D‐lysine‐coated (100 µg mL^−1, Sigma–Aldrich) coverslips 1 day before experiments and cultured in DMEM containing 10% FBS and 1% penicillin/streptomycin in 5% CO2 at 37 °C. Whole‐cell voltage‐clamp recordings were acquired using an EPC 9 amplifier combined with Patchmaster software (HEKA Electronics, Lambrecht/Pfalz, Germany). Currents were sampled at 20 kHz and filtered at 5 kHz. Data analysis was performed using the Fitmaster software (HEKA Electronics). Membrane potential was held at −70 mV and outward K^+ current (IK) was evoked by depolarizing steps (500 ms duration) ranging from −120 to +120 mV in increments of 20 mV. The pipette solution contained 140 mM KCl, 2 mM MgCl2, 5 mM EGTA, and 10 mM HEPES and was adjusted to pH 7.4 with KOH. The extracellular solution contained 140 mM NaCl, 5 mM KCl, 2 mM CaCl2, 2 mM MgCl2, and 10 mM HEPES and was adjusted to pH 7.4 with NaOH. […] The fold‐increase values in the patch‐clamp experiments were determined by calculating […]. […]

mice = test: Hargreaves test; format: in vivo; settings: 10 mg kg−1 i.p., hindpaws, vs vehicle
Description: An infrared heat source (intensity set to 25) was applied to the plantar surface of the hind paw, and the time until the animal elicited a withdrawal response was determined. Each hind paw was measured 4–5 times with a minimum interval of 20 s between measurements, and the mean value was calculated. Measurements that reached the cutoff time (20 s) were excluded.

[1] = test system: voltage-dependent Na+ channels in IB4-binding sensory neurons; test: Tetrodotoxin-resistant Na+ currents in DRG neurons (patch-clamp); format: cell-based, mouse; settings: 50 µM
muscarinic M3 receptor = molecular target: T2, muscarinic M3 receptor (Homo sapiens, UniProt P20309); test: biochemical; settings: read-out: binding inhibition
T2 construct: purchased Eurofins Cerep P270
Description: (§1) Measurements were performed in duplicate.
(§2) channel, which were obtainedfrom ratspecimens).
(§3) in brackets) specific for each target.

muscarinic M1 receptor = molecular target: T3, muscarinic M1 receptor (Homo sapiens, UniProt P11229); test: biochemical; settings: read-out: binding inhibition
T3 construct: purchased Eurofins Cerep P270
Description: as §1, §2, §3

Chain of histamine H1 receptor (P35367 whole entry): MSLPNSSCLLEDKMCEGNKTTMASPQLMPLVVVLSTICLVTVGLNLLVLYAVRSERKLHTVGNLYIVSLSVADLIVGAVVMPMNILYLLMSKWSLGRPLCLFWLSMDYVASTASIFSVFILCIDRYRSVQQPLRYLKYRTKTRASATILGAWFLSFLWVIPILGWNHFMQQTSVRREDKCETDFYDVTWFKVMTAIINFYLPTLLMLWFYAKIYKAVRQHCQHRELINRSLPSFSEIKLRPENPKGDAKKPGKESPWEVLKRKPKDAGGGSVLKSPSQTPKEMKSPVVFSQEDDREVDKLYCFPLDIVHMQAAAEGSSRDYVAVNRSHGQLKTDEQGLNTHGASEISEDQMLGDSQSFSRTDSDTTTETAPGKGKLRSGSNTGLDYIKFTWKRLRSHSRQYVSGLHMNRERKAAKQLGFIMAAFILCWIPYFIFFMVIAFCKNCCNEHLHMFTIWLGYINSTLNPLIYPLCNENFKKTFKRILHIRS
T2 sequence (P20309 whole entry): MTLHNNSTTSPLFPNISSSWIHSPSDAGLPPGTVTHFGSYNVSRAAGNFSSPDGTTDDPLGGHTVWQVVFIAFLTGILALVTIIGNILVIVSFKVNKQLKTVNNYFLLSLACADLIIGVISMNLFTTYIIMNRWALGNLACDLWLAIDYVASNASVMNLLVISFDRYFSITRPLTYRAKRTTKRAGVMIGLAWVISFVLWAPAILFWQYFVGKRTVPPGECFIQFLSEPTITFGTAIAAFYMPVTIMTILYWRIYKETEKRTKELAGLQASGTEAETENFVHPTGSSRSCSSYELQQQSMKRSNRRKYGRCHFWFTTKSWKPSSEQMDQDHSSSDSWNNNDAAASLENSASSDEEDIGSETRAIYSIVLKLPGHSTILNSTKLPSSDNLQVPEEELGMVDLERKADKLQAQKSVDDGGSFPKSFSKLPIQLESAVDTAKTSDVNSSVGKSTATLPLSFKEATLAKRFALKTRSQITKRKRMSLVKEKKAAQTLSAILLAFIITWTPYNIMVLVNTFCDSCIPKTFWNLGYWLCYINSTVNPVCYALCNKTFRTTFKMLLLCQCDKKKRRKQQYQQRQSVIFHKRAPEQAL
T3 sequence (P11229 whole entry): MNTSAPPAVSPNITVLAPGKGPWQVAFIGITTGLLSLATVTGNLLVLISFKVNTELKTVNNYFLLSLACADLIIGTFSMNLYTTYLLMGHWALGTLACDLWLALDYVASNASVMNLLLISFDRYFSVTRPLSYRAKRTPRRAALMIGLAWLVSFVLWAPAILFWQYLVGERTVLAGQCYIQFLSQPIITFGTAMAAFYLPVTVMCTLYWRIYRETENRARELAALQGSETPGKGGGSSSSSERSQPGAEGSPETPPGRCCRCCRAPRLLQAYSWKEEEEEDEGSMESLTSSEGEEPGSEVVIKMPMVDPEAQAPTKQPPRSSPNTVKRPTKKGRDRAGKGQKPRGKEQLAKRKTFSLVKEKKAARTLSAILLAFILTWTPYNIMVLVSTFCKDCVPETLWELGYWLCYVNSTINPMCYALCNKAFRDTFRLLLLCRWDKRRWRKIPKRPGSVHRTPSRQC

Structure (SMILES): O=C(O)COCCN1CCN(C2=Nc3ccccc3Oc3ccc(Cl)cc32)CC1 [Compound 6]
- affinity for histamine H1 receptors (histamine H1 receptor): low affinity
- Ki (histamine H1 receptor; mean [CI 95%]): 575 nM
- increase in current densities (human Slack; 10 mM pipette Na+): more pronounced
- current densities compared to baseline (human Slack; Na+-free pipette solution): increased the current densities compared to baseline
- thermal sensitivity (Hargreaves test) (mice): Neither mechanical nor thermal sensitivity was altered
- tetrodotoxin-resistant Na+ currents [1]: did not affect

Structure (SMILES): CN1CCN(C2=Nc3ccccc3Oc3ccc(Cl)cc32)CC1 [Loxapine, reference compound]
- inhibition at 10 µM (muscarinic M3 receptor): > 50%
- inhibition at 10 µM (muscarinic M1 receptor): > 50%
